Data from PubChem BioAssay (NCI).
Where “and” joins values, the source holds several entries; their conditions need not be identical. Identical values can stand only once.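 These data come from cells grown in 96-well plates and exposed to compound for 48 hours at five concentrations. GI50 is the concentration that inhibits growth by half. At the TGI there is no net growth.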

What was measured:
Assay in all cases: NCI-60 cell line screen, 48 h
DU-145 prostate = test system: DU-145 prostate
MOLT-4 leukemia = test system: MOLT-4 leukemia
DMS 114 small cell lung = test system: DMS 114 small cell lung
KM20L2 colon = test system: KM20L2 colon
XF 498 CNS = test system: XF 498 CNS
M19-MEL melanoma = test system: M19-MEL melanoma
LXFL 529 NSCLC = test system: LXFL 529 NSCLC
DLD-1 colon = test system: DLD-1 colon
DMS 273 small cell lung = test system: DMS 273 small cell lung
SNB-78 CNS = test system: SNB-78 CNS
HOP-18 NSCLC = test system: HOP-18 NSCLC

SMILES	TGI (DU-145 prostate)	TGI (MOLT-4 leukemia)	further results
CC1=CP(=O)(c2c(C(C)C)cc(C(C)C)cc2C(C)C)CCC1Cl (stereo not drawn)	37.1 µM	49.6 µM	–
CCCCCCCCCCCCCCCCNc1ccn(C2CC(O)C(COC(c3ccccc3)(c3ccccc3)c3ccc(OC)cc3)O2)c(=O)n1 (stereo not drawn)	> 100 µM	> 100 µM	–
C(#CP(c1ccccc1)c1ccccc1)P(C#CP(c1ccccc1)c1ccccc1)c1ccccc1	> 100 µM	> 100 µM	–
COc1cc(-c2c3c(cc4c2OCO4)[C@@H](Nc2ccc(-c4ccc(-c5ccc(N[C@@H]6c7cc8c(cc7C(c7cc(OC)c(O)c(OC)c7)[C@H]7C(=O)OC[C@H]67)OCO8)cc5)cc4)cc2)[C@H]2COC(=O)[C@@H]2C3)cc(OC)c1O (stereo partly drawn)	4.74 µM	–	–
COc1cc2c(cc1OC)C(=O)/C(=C/c1cc(C)cc(C)c1)C2	6.23 µM	> 90.3 µM	–
COc1ccccc1C(=O)NCC1CCCN2CCCCC12 (stereo not drawn)	> 100 µM	> 100 µM	–
CC(C)C1=CC(=O)[C@@](C)(C2[C@H](O)C[C@@]3(C)[C@@H]4CC=C5[C@@H](CC[C@@H](OC6OCC(O)C(O)C6OC6OC(C)C(O)C(O)C6O)C5(C)C)[C@]4(C)C(=O)C[C@]23C)O1 (stereo partly drawn)	> 100 µM	> 100 µM	–
CC(=O)OC1[C@H](OC(C)=O)C2=C(C)[C@@H](OC(C)=O)C[C@@]2(C(C)(C)O)[C@@H](OC(C)=O)[C@H]2[C@@]1(C)[C@@H](OC(C)=O)CC(OC(C)=O)[C@]21CO1 (stereo partly drawn)	> 100 µM	> 100 µM	–
Cc1cc2nc3c(C#N)c4c(c(-c5ccc(Cl)cc5)n3c2cc1C)CCC4	44 µM	57.5 µM	–
CCCCOC(=O)C1CC[C@H]2[C@@H]3CCc4cc(OC(=O)c5cccc6c(=O)c7ccccc7[nH]c56)ccc4[C@H]3CC[C@]12C (stereo partly drawn)	14.9 µM	21.7 µM	–
COc1ccccc1C1(c2c(OC)c(=O)c2=O)SCCCS1	> 100 µM	> 100 µM	–
CNc1ncnc2c1nc(NC1CCCC1)n2C1OC(CO)C(O)C1O (stereo not drawn)	> 100 µM	> 100 µM	–
COC1C(N(C)C)=C(c2ccccc2)C(=O)N2CCc3ccccc3C12 (stereo not drawn)	> 100 µM	> 100 µM	–
CC1=C(C)CC2(C=C(C(C)(C)C)C(=O)C(C(C)(C)C)=C2)SC1	> 100 µM	> 100 µM	–
Cc1ccc2c(c1)nc1n2C(N)=Nc2ccccc2S1	> 100 µM	> 100 µM	–
C(=Nc1ccc(-c2nc3ccccc3s2)cc1)c1ccc[nH]1	34.5 µM	38.8 µM	–
c1ccc2c(c1)cc1n2CCc2c-1[nH]c1ccccc21	> 10 µM	> 10 µM	–
Cc1cccc(CC(Cc2ccc(C)cc2C(=O)O)C(=O)O)c1 (stereo not drawn)	> 100 µM	> 100 µM	–
CCN1CCC(CNC(=O)c2ccc(N)cc2)N1CC (stereo not drawn)	> 100 µM	> 100 µM	–
O=c1c(Cc2ccc(Cl)cc2)nnc2sc(-c3ccc(-c4ccc(Cl)cc4Cl)o3)nn12	> 100 µM	> 100 µM	–
COc1cc(OC)c2c(c1)OC(c1cccnc1)C(c1ccccc1)C2=O (stereo not drawn)	> 100 µM	> 100 µM	–
CCn1c(CCl)nc2c1C(=O)c1ccccc1C2=O	9.02 µM	–	–
CC(C)=CC[C@]12CCN(C)[C@H]1N(S(=O)(=O)c1ccccc1)c1ccccc12	> 100 µM	> 100 µM	–
Br[C@@H]1[C@H]2c3nc4ccccc4nc3[C@@H]1C[C@H]2Br	> 100 µM	> 100 µM	–
C/C(=C/CC[C@]1(CO)CC[C@]2(C)[C@H](CC[C@@H]3[C@@]4(C)CC[C@H](OC5OC(CO)C(O)C(O)C5OC5OC(CO)C(O)C(O)C5O)C(C)(C)[C@@H]4CC[C@]32C)[C@H]1O)CO (stereo partly drawn)	> 100 µM	> 100 µM	–
COc1cc2c(/C=C3/C(=O)Nc4ccc(Cl)cc43)c(Cl)[nH]c2cc1C	4.38 µM	0.814 µM	–
N/C1=C/C(=O)NC(=O)c2c(c3ccccc3oc2=O)C1	> 100 µM	> 100 µM	–

SMILES	TGI (DU-145 prostate)	TGI (MOLT-4 leukemia)	further results
CN(CCNC(=O)c1c[nH]c2c1Cc1ccccc1-2)CCNC(=O)c1c[nH]c2c1Cc1ccccc1-2	> 100 µM	63.7 µM	–
O=C1CN(c2cccc(Cl)c2)C(=O)CN1NCNN1CC(=O)N(c2cccc(Cl)c2)CC1=O	> 100 µM	> 100 µM	–
Brc1cccc(C2ON=C(c3ccccc3)N2C23CC4CC(CC(C4)C2)C3)c1 (stereo not drawn)	> 10 µM	> 10 µM	–
CC1OC2OC3C(OCC(O)C3O)OC(=O)[C@]34CCC(C)(C)CC3C3=CCC5[C@@]6(C)C[C@H](O)[C@H](OC7OC(CO)C(O)C(O)C7OC7OCC(OC(=O)CC(C)(O)CC(=O)OC1C(O)C2O)C(O)C7O)[C@@](C)(CO)C6CC[C@@]5(C)[C@]3(C)CC4 (stereo partly drawn)	14.7 µM	23.1 µM	–
CC(C)=CC(=O)c1[nH]c2ccccc2c1CC(=O)NCCc1cncn1C	> 100 µM	> 100 µM	–
CCc1c(-c2ccc(OC)cc2)oc(OC)c(C)c1=O	> 100 µM	> 100 µM	–
C[C@@H]1CC(=O)C[C@@H]2CC[C@H]3[C@@H]4CC[C@H](OC(=O)c5cccc6cc7ccccc7nc56)[C@H]4CC[C@@H]3[C@H]21	28.7 µM	31.7 µM	–
Cn1c(=O)c2c(nc3sc4ccccc4c(=O)n32)n(C)c1=O	> 100 µM	> 100 µM	–
CC(=O)NC1=NC(=O)/C(=C/c2ccc(/C=C3/C(=O)N=C(NC(C)=O)N3C)cc2)N1C	> 100 µM	> 100 µM	–
O=c1[nH]c(NCc2ccc(Cl)cc2)nc2nc[nH]c12	> 100 µM	> 100 µM	–
Cc1ccc(C2(c3ccc(F)cc3)OC(=O)c3ccccc32)c(O)c1 (stereo not drawn)	28.7 µM	76.3 µM	–
COc1ccc(NCC(=O)Nn2c(-c3ccccc3)nc3ccccc3c2=O)cc1	> 100 µM	> 100 µM	–
C[C@]12CC(c3ccccc3O1)C(C(=O)Nc1nc(C34CC5CC(CC(C5)C3)C4)cs1)C(=O)N2 (stereo partly drawn)	> 100 µM	> 100 µM	–
COC1(CC[C@@H](C)COC2OC(CO)C(O)C(O)C2O)O[C@H]2C[C@H]3[C@@H]4CC=C5C[C@@H](OC6OC(CO)C(O)C(OC7OC(CO)C(O)C(O)C7O)C6OC6OC(C)C(O)C(O)C6O)CC[C@]5(C)[C@H]4CC[C@]3(C)[C@H]2[C@@H]1C (stereo partly drawn)	14.7 µM	> 31.6 µM	–
Cc1ccc2nc(-c3ccc(C(C)(C)C)cc3)oc(=O)c2c1	68.4 µM	39.3 µM	–
CCn1c2ccccc2c2c(-c3ccccc3)cc3c(c21)C(=O)N(c1ccccc1)C3=O	–	> 100 µM	TGI (DMS 114 small cell lung): > 100 µM; TGI (KM20L2 colon): > 100 µM; TGI (XF 498 CNS): > 100 µM; TGI (M19-MEL melanoma): > 100 µM; TGI (LXFL 529 NSCLC): > 100 µM; TGI (DLD-1 colon): > 100 µM; TGI (DMS 273 small cell lung): > 100 µM; TGI (SNB-78 CNS): > 100 µM
C=C(Cl)C(Cl)(CCl)CCC(Br)C(C)(C)Br (stereo not drawn)	> 10 µM	> 10 µM	–
CCOC(=O)/C=C(\C(=O)OCC)n1cc(C)c(=O)n(Cc2cnnn2COCCOC(C)=O)c1=O	48 µM	8.7 µM	–
O=C(Cn1c(C(=O)c2ccccc2)nc2ccccc21)c1ccccc1	> 100 µM	> 100 µM	–
OC1COC2CC(Nc3ccccn3)OC12 (stereo not drawn)	–	> 100 µM	–
O=C(/C(=C\I)c1ccccc1)c1ccccc1	19.2 µM	86.5 µM	–
CN(C)c1ccc(/C=C/c2sc3ccccc3[n+]2C)cc1	13.2 µM and 11.2 µM	0.957 µM and 1.31 µM	GI50 (DU-145 prostate): 2570 nM and 532 nM
O=C(O)/C=C/c1ccc2c(c1)CC1(Cc3ccccc3C1)C2	–	> 100 µM	–
O=C(O)[C@H](CCC[C@H]1C(=O)O[C@H](c2ccccc2)[C@H](c2ccccc2)N1C(=O)OCc1ccccc1)N[C@@H](c1ccccc1)[C@H](O)c1ccccc1	> 100 µM	62 µM	–
O=C1CSC(c2ccc(Cl)cc2Cl)N1c1ccc(Oc2ccc(Cl)cc2)c(Cl)c1 (stereo not drawn)	> 100 µM	81.5 µM	–
CCOC(=O)C1(C#N)CC1	> 100 µM	> 100 µM	–
COc1nc2ccc(COc3ccc(C(=O)O)cc3)cc2nc1OC	> 100 µM	> 100 µM	–

SMILES	TGI (DU-145 prostate)	TGI (MOLT-4 leukemia)	further results
Cn1cc(S(=O)(=O)NC(=O)Nc2ccc(Cl)cc2)c(=O)c2ccc(F)cc21	> 100 µM	> 100 µM	–
OC1(c2ccc(Cl)cc2)c2ccccc2-c2nc3ccccc3n21 (stereo not drawn)	> 100 µM	> 100 µM	–
C=C1C(=O)O[C@H]2C[C@@H]1[C@@H](O)[C@H](O)[C@@H](C)CCCC(C)=CCC[C@@]2(C)O	> 100 µM	54.6 µM	–
O=C(/C=C(\C(=O)c1cccs1)c1cccs1)c1ccc(C(=O)/C=C(\C(=O)c2cccs2)c2cccs2)cc1	> 100 µM	> 100 µM	–
CC1(C)COC2=C(C1)C(=O)c1ccccc1C2=O	3.07 µM	3.91 µM	–
O=C(O)c1nc2ccc(C(F)(F)F)cc2nc1Nc1ccc(F)cc1	85 µM	28.9 µM	–
Cc1c2c(n(CC(c3ccccc3)c3ccccc3)c1C)NN=C(C#N)S2(=O)=O	> 100 µM	> 100 µM	–
CCOC(=O)c1c(SC(=O)c2ccc(OC)cc2)n(-c2ccccc2)c(=S)n(-c2ccccc2)c1=O	> 100 µM	64 µM	–
Cc1nc2sc(C(=O)c3ccc(Cl)cc3)c(N)c2c(-c2ccccc2Cl)c1C(=O)Nc1ccccc1	61 µM	51.5 µM	–
COC(=O)C1OC(O[C@H]2CC[C@]3(C)[C@H]4CC=C5[C@@H]6CC(C)(C)CC[C@]6(C(=O)OC6OCC(O)C(O)C6OC6OC(C)C(OC7OCC(O)C(O)C7O)C(OC7OCC(O)(CO)C7O)C6O)[C@H](O)C[C@@]5(C)[C@]4(C)CC[C@H]3C2(C)C)C(O)C(O)C1O (stereo partly drawn)	20.9 µM	> 100 µM	–
CC(Oc1ccccc1)C(=O)NNC(=O)OC(C)(C)C (stereo not drawn)	> 100 µM	> 100 µM	–
O=C(NO)NCCCl	> 100 µM	> 100 µM	–
O=C(Nc1ccc(S(=O)(=O)/N=c2\ncccn2C(=O)C(C(F)(F)F)C(F)(F)F)cc1)C(C(F)(F)F)C(F)(F)F	> 100 µM	> 100 µM	–
CCC(C)C1=C(O)[N+]2([O-])Oc3ccc(-c4c(O)c(O)c(-c5ccc(OC(C)=O)cc5)c(OC(C)=O)c4OC(C)=O)cc3OC2(C(C)CC)C(=O)N1O (stereo not drawn)	> 50 µM	> 50 µM	–
Nc1nc(Cl)c(Cl)c(NCC2(O)CCC2)n1	> 100 µM	> 100 µM	–
O=C1C(c2c(O)[nH]c3ccc(Br)cc23)=Nc2ccc(Br)cc21	82.3 µM	> 100 µM	–
O=c1[nH]c(=O)n(COCc2ccccc2)cc1Nc1ccc(Br)cc1	> 100 µM	> 100 µM	–
Cc1nc2cc(Nc3ccccc3C(=O)O)ccc2s1	–	> 100 µM	TGI (DMS 114 small cell lung): > 100 µM; TGI (KM20L2 colon): > 100 µM; TGI (M19-MEL melanoma): > 100 µM; TGI (HOP-18 NSCLC): > 100 µM; TGI (LXFL 529 NSCLC): > 100 µM; TGI (DLD-1 colon): > 100 µM; TGI (DMS 273 small cell lung): > 100 µM
COc1cc2c(/C=C3/C(=O)N(C)c4ccc(O)cc43)c(Cl)[nH]c2cc1C	18.4 µM	0.784 µM	–
COc1ccc(C2C(=O)c3c(OC)cc(OC)cc3OC2c2cccnc2)cc1 (stereo not drawn)	> 100 µM	> 100 µM	–
COC(=O)C1(SC)C2CCC3C2CCC31 (stereo not drawn)	> 100 µM	> 100 µM	–
C#CCN(Cc1ccc2nc(-c3ccccc3)c(N)nc2c1)c1cc(OC)c(OC)c(OC)c1	–	35.7 µM	TGI (DMS 114 small cell lung): 37.7 µM; TGI (KM20L2 colon): > 100 µM; TGI (XF 498 CNS): 59.5 µM; TGI (M19-MEL melanoma): > 100 µM; TGI (LXFL 529 NSCLC): 91.2 µM; TGI (DMS 273 small cell lung): 42.8 µM; TGI (SNB-78 CNS): 78.9 µM
[N-]=[N+]=CC(=O)OCCCCl	> 100 µM	> 100 µM	–
C#CC(O)/C=C/CCCCCCC#CC/C=C\CC#CCCCCCCCCC(O)C#C (stereo not drawn)	24.1 µM	–	–
CC1(C)OC2OC(C(COS(=O)(=O)C(F)(F)F)N=[N+]=[N-])C(OC(=O)c3ccccc3)C2O1 (stereo not drawn)	> 100 µM	> 100 µM	–
